Measurements taken from publication PMC10963751, “Solar-driven sugar production directly from CO2 via a customizable electrocatalytic–biocatalytic flow system” (Nature Communications, 2024).

Target: T1, BmfaldDH (Burkholderia multivorans, UniProt A0A0H3KP42)
T1 construct: gene fdhA2; pET28a, E. coli BL21(DE3), Ni-NTA purified (His-tagged)
T1 sequence (A0A0H3KP42 1-398): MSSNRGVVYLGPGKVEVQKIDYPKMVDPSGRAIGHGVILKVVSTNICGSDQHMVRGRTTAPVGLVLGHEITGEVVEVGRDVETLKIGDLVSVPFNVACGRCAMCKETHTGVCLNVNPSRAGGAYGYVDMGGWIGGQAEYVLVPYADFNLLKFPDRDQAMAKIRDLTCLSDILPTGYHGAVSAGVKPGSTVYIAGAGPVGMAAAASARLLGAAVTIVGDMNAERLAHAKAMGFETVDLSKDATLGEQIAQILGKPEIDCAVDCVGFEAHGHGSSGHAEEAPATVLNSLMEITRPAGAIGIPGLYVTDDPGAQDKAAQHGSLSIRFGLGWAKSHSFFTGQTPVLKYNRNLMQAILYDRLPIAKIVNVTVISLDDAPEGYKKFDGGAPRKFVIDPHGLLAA
Experiment: isothermal titration calorimetry
Assay type: binding

SMILES	thermodynamic data
NC(=O)C1=CN([C@@H]2O[C@H](COP(=O)(O)OP(=O)(O)OC[C@H]3O[C@@H](n4cnc5c(N)ncnc54)[C@H](O)[C@@H]3O)[C@@H](O)[C@H]2O)C=CC1 [NADH]	evaluating the interaction of BmfaldDH with formate and NADH
O=CO [formate]	isothermal titration calorimetry (ITC) to measure the thermodynamic data
